pIC50: −log10 of the molar value.

T1 sequence (Q9HBW0 whole entry): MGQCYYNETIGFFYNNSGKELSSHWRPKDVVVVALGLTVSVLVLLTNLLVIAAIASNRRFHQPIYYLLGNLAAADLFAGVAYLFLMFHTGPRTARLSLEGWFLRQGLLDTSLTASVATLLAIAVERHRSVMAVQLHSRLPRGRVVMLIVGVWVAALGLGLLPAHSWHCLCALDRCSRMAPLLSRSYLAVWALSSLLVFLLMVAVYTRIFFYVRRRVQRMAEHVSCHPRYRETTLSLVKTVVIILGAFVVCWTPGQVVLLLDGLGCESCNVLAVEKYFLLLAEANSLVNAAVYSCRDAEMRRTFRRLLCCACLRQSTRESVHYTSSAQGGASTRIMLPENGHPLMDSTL

The assay concerns the target T1, LPA2R (Homo sapiens, UniProt Q9HBW0).
T1 construct: expressed in transfected cells; host or cells: U2OS
Description: LPA2R-Calciumflux assay (FLIPR, intracellular calcium mobilisation after LPA). In kind it is cell-based. Particulars: U2OS cells recombinant expressing LPA2R; antagonism of LPA-induced calcium flux; racemate of the two trans enantiomers unless marked enantiomer. An excerpt:
The assay detects intra cellular calcium which is generated by cells upon activation of the LPA2 receptor by its ligand LPA. This transient calcium mobilization can be monitored using a commercial calcium detection kit (e.g. from Molecular Devices). The main component of such a kit is a dye, which becomes fluorescent when calcium is present—a transient fluorescence signal after addition of a ligand to a test well are the result. Readers like the FLIPR (Molecular Devices) can be used to monitor such transient “Ca-flux” signals.
The signals are calculated according to peak maximum minus base line.
Compounds which are antagonists of LPA lead to a decreased mobilisation of intracellular calcium and thus to a lower signal. The assay is performed in microplates (384 wells per plate).
LPA2R-Calciumflux Assay Protocol
The assay is run according to the following procedure:
50 uL seed cells (10000 cells/well in DMEM buffer)
• Incubate 24 h at 37° C., 10% CO2 • aspirate medium 50 uL add calcium dye 1×HBSS/HEPES buffer • incubate 1 h at 37° C. (“loading”) • equilibrate 10 min at RT 5 uL add compounds in HEPES buffer • shake 10 sec. at 1000 rpm • incubate 15 min at RT 20 uL add LPA (in the FLIPR Tetra) in Krebs-buffer/BSA & measurement
The cells are seeded in DMEM buffer (DMEM, 10% FCS, 10 mM HEPES, 1% Pen/Strep).
Dye loading is done in HBSS/HEPES buffer (100 mL 10×HBSS+20 mL 1M HEPES+880 mL water, pH 7.4)
The LPA is added in Krebs/BSA buffer (120 mM NaCl, 5 mM KCl, 0.62 mM MgSO4, 1.8 mM CaCl2, 10 mM HEPES, 6 mM D(+)-Glucose, 0.2% BSA, pH 7.4).
The compounds are pre-diluted in HEPES buffer (20 mM, pH 7.4), whereby the final DMSO content in the assay is kept at 1%. The compounds are pre-diluted in order to generate dose response series on the microplates. The dose response series consist of 10 concentrations for each compound from 30 uM final to 1 nM final. From all compound wells the resulting signals are referred to control wells (located on each plate besides the compound wells) in terms of % activity.
From these % activity values—along with the corresponding compound concentrations—IC50 values are fitted for each compound using standard fitting programs such as Graphpad Prism. Here the method “log(inhibitor) vs. response—Variable slope” is used.
In general terms: Calcium assays in cells follow changes in intracellular calcium, usually with a dye or a luminescent sensor.
`N#Cc1ccc2nc(NC(=O)C3CC3c3ccccc3)[nH]c2c1` (single isomer, unassigned; enantiomer-2) [drawing 72, enantiomer-2-Phenyl-cyclopropane-carboxylic acid (6-cyano-1H-benzoimidazol-2-yl)-amide]: the pIC50 (as a rule, the IC50 on a negative log10 scale, so that one unit is a factor of ten) was 5.00 to 6.00.

On to `O=C(Nc1nc2ccccc2[nH]1)C1CC1c1ccccc1Cl` (single isomer, unassigned; enantiomer-2) [drawing 75, enantiomer-2-(2-Chloro-phenyl)-cyclopropane-carboxylic acid (1H-benzoimidazol-2-yl)-amide], for which the pIC50 was 7.00 to 8.00.

For `O=C(Nc1nc2ccccc2[nH]1)C1CC1c1ccccc1Cl` (single isomer, unassigned; enantiomer-2) [drawing 76, enantiomer-2-(2-Chloro-phenyl)-cyclopropane-carboxylic acid (1H-benzoimidazol-2-yl)-amide], the negative logarithm of the IC50 (pIC50) is less than 5.00.

As for `O=C(Nc1nc2ccc(Cl)cc2[nH]1)C1CC1c1ccccc1Cl` (single isomer, unassigned; enantiomer-2) [enantiomer-2-(2-Chloro-phenyl)-cyclopropane-carboxylic acid (6-chloro-1H-benzoimidazol-2-yl)-amide], the pIC50 was 6.00 to 7.00.

With `O=C(Nc1nc2ccnc(Cl)c2[nH]1)C1CC1c1ccccc1` (single isomer, unassigned; enantiomer-2) [enantiomer-2-Phenyl-cyclopropane-carboxylic acid (4-chloro-3H-imidazo[4,5-c]pyridin-2-yl)-amide], the pIC50 was 7.00 to 8.00.

`O=C(Nc1nc2cc(Cl)cnc2[nH]1)C1CC1c1ccccc1` (single isomer, unassigned; enantiomer-2) [enantiomer-2-Phenyl-cyclopropane-carboxylic acid (6-chloro-3H-imidazo[4,5-b]pyridin-2-yl)-amide]: the pIC50 is greater than 8.00.

Consider `O=C(Nc1nc2c(OCCN3CCCC3)cccc2[nH]1)C1CC1c1ccccc1` (single isomer, unassigned; enantiomer-2) [enantiomer-2-Phenyl-cyclopropane-carboxylic acid [4-(2-pyrrolidin-1-yl-ethoxy)-1H-benzoimidazol-2-yl]-amide], for which the negative-log IC50 (pIC50) was 6.00 to 7.00.

For the compound `O=C(Nc1nc2cc(OCCN3CCCC3)ccc2[nH]1)C1CC1c1ccccc1` (single isomer, unassigned; enantiomer-2) [enantiomer-2-Phenyl-cyclopropane-carboxylic acid [5-(2-pyrrolidin-1-yl-ethoxy)-1H-benzoimidazol-2-yl]-amide], the pIC50 was 5.00 to 6.00.

Take `COC(=O)c1cccc2nc(NC(=O)C3CC3c3ccccc3Cl)[nH]c12` (single isomer, unassigned; enantiomer-2) [enantiomer-2-{[2-(2-Chloro-phenyl)-cyclopropane-carbonyl]-amino}-3H-benzoimidazole-4-carboxylic acid methyl ester]: the pIC50 was less than 5.00.

In the case of `O=C(Nc1nc2cc(Br)cnc2[nH]1)[C@H]1C[C@@H]1c1ccccc1` [(1S,2S)-2-Phenyl-cyclopropanecarboxylic acid (6-bromo-3H-imidazo[4,5-b]pyridin-2-yl)-amide], the pIC50 was 7.00 to 8.00.

The values above are taken from patent US8912202B2, “N-(benzimimdazol-2-yl)-cyclopropane carboxamides as lysophosphatidic acid antagonists” (Merck Patent GmbH, priority 2011, dated 2014).
